Results taken from ChEMBL document CHEMBL5584232, “Hijacking monopolar spindle 1 (MPS1) for various cancer types by small molecular inhibitors: Deep insights from a decade of research and patents” (Eur J Med Chem, 2024).
pIC50: −log10 of the molar value.

Legend:
[1] = test system: A549; experiment: Antiproliferative activity against human A549 cells assessed as reduction in cell growth incubated for 48 hrs by MTT assay; type: functional, cell-based; settings: A549, 48 h
[2] = AUC in mouse; type: ADME, organism-based; settings: in vivo
[3] = test system: COLO 205; experiment: Antiproliferative activity against human COLO 205 cells assessed as reduction in cell viability incubated for 48 hrs by MTT assay; type: functional, cell-based; settings: COLO 205, 48 h
[4] = Half life in mouse; type: ADME, organism-based; settings: in vivo
[5] = target: T1, Aurora kinase A (Homo sapiens, UniProt O14965); experiment: Inhibition of AURORA-A (unknown origin)
T1 sequence (O14965 whole entry): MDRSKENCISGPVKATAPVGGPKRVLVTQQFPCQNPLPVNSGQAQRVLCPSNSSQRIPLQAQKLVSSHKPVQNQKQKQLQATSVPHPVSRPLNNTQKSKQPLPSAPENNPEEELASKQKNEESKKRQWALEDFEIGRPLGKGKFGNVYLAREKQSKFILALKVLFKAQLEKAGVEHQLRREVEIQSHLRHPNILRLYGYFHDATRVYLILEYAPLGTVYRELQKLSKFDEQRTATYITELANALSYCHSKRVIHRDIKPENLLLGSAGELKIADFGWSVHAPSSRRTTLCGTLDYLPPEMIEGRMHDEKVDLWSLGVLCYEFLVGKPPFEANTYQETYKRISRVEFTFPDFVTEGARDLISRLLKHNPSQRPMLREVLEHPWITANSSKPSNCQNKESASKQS

[6] = Metabolic stability in mouse liver microsomes assessed as drug metabolism measured after 30 mins; type: ADME, Microsome; settings: read-out: Drug metabolism
[7] = target: T2, Dual specificity protein kinase TTK (Homo sapiens, UniProt P33981); experiment: Inhibition of MPS1 (unknown origin)
T2 sequence (P33981 whole entry): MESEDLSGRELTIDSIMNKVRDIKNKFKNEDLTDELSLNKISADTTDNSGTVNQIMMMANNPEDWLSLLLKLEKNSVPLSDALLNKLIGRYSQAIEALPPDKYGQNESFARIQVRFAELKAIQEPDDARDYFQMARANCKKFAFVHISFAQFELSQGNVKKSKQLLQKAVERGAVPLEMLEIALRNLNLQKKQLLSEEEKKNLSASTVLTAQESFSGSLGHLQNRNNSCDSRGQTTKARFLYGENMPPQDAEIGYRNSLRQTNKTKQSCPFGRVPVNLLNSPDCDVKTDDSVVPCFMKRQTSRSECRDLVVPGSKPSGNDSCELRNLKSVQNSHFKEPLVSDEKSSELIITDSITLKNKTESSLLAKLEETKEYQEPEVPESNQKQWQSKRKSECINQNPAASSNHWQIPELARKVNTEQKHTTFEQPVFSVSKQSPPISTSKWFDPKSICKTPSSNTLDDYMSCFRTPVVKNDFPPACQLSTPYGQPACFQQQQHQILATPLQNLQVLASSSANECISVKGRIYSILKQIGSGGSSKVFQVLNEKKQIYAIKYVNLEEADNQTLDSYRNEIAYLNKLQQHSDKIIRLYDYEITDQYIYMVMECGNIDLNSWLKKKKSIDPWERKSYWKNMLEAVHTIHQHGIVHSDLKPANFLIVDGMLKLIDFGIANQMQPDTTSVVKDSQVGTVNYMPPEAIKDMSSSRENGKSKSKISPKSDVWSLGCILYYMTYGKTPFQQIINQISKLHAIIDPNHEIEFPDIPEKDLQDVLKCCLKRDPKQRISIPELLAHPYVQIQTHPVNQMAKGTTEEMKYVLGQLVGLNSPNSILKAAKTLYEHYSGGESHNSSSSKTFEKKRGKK

[8] = test system: CAL-51; experiment: Antiproliferative activity against human CAL-51 cells assessed as inhibition of cell growth incubated for 72 hrs by MTT assay; type: functional, cell-based; settings: CAL-51, 72 h
[9] = test system: MOLT-4; experiment: Antiproliferative activity against human MOLT-4 cells assessed as reduction in cell growth incubated for 72 hrs by MTT assay; type: functional, cell-based; settings: MOLT-4, 72 h
[10] = target: T2, Dual specificity protein kinase TTK; experiment: Inhibition of human recombinant TTK expressed in Escherichia coli Rossetta 2 (DE3) incubated for 1 hr by TR-FRET assay
[11] = test system: MDA-MB-468; experiment: Growth inhibition of human MDA-MB-468 cells incubated for 48 hrs by SRB assay; type: functional
[12] = test system: A549; experiment: Growth inhibition of human A549 cells incubated for 48 hrs by SRB assay; type: functional
[13] = target: CYP450 (Homo sapiens, UniProt P04798+P05177+P05181+P08684+P10632+P10635+P11509+P11712+P13584+P20813+P20815+P20853+P24462+P24903+P33260+P33261+P51589+P78329+P98187+Q02928+Q08477+Q16678+Q16696+Q5TCH4+Q6VVX0+Q7Z449+Q8TAV3+Q96SQ9+Q9HB55); experiment: Inhibition of CYP450 (unknown origin); type: ADME, protein assay
[14] = test system: HCT-116; experiment: Antitumor activity against human HCT-116 cells xenografted in athymic nude BALB/c mouse assessed as reduction in tumor growth at 12.5 mg/kg, ip administered every other day and measured every other day for 16 days; type: functional; settings: HCT-116, 384 h, time 16 day, read-out: TGI
[15] = test system: HCT-116; experiment: Growth inhibition of human HCT-116 cells incubated for 48 hrs by SRB assay; type: functional
[16] = target: Mitogen-activated protein kinase 8 (Homo sapiens, UniProt P45983); experiment: Inhibition of JNK1 (unknown origin) using ATF2 as substrate after 1 hr by Lanthascreen TR-FRET assay
[17] = Dose normalized AUC in Wistar rat at 1 mg/kg, po measured for 24 hrs by LC-MS/MS analysis; type: ADME, organism-based; settings: in vivo
[18] = Clearance in Wistar rat at 1 mg/kg, iv measured after 24 hrs by LC-MS/MS analysis; type: ADME, organism-based; settings: in vivo
[19] = Clearance in Beagle dog at 0.5 mg/kg, iv measured for 24 hrs by LC-MS/MS analysis; type: ADME, organism-based, Canis lupus familiaris; settings: in vivo
[20] = Dose normalized AUC in Beagle dog at 1 mg/kg, po measured for 24 hrs by LC-MS/MS analysis; type: ADME, organism-based, Canis lupus familiaris; settings: in vivo

Sequence of Mitogen-activated protein kinase 8 (P45983 whole entry): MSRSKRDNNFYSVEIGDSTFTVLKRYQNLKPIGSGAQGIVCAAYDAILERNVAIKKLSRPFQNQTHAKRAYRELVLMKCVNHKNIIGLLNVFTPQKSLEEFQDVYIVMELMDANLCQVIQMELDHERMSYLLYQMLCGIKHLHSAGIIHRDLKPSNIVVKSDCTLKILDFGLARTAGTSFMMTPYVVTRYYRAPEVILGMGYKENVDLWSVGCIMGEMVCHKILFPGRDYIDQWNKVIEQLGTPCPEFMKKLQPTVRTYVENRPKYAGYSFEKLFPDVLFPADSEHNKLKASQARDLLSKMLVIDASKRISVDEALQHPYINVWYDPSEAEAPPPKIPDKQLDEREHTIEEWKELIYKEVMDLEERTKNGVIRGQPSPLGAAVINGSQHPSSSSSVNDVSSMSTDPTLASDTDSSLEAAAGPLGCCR

Question: With `CCOc1cc2c(-c3ccc(C)c(S(N)(=O)=O)c3)n[nH]c2cc1-c1cnn(C)c1` as the molecule, how does the pIC50 [1] read?
Answer: 6.41

Question: With `CCC(=O)N[C@H]1CC[C@@H](n2c(=O)cc(C)c3cnc(Nc4ccc(N5CCN(C(=O)CCC#Cc6ccc7c(c6)CN(C6CCC(=O)NC6=O)C7=O)CC5)cc4OC)nc32)CC1` (stereo partly drawn) as the molecule, how does the AUC [2] read?
Answer: 2.23 µM·h

Question: And the pIC50 [3]?
Answer: 7.00

Question: And the half-life [4]?
Answer: 4.3 h

Question: Which results are given for `COC1CCN(C(=O)c2ccc(Nc3cc4[nH]c(C(=O)N(C)C)cc4cn3)c(Cl)c2)CC1`?
Answer: pIC50 [5]: < 4.00; metabolised at 0.5 h [6]: 23%

Question: With `COc1cc(C(=O)N(C)C)ccc1Nc1nc(OC2CCCC2)c2cc[nH]c2n1` as the molecule, how does the pIC50 [7] read?
Answer: 9.00

Question: With `COc1cc(C(=O)NCC(C)(C)O)ccc1Nc1nc(OC2CCCC2)c2c(-c3ccc4nc(C)oc4c3)c[nH]c2n1` as the molecule, how does the pIC50 [8] read?
Answer: 7.22

Question: With `CN(C)C(=O)c1cc2cnc(Nc3ccc(S(=O)(=O)N(C)C)cc3Cl)cc2[nH]1` as the molecule, how does the pIC50 [5] read?
Answer: < 4.40

Question: What about the metabolised at 0.5 h [6] of the same molecule?
Answer: 25%

Question: With `COc1cc(N2CCN(C)CC2)ccc1Nc1ncc2c(n1)-n1ccc(C(=O)Nc3c(C)cccc3F)c1CC2` as the molecule, how does the pIC50 [9] read?
Answer: 7.96

Question: With `CN(C)C(=O)c1ccc(Nc2cc3c(cn2)cc(C(=O)N(C)C)n3C(=O)OC(C)(C)C)c(Cl)c1` as the molecule, how does the pIC50 [5] read?
Answer: 4.64

Question: And the metabolised at 0.5 h [6]?
Answer: 48%

Question: With `COc1cc(C(=O)NC(C)(C)CO)ccc1Nc1nc(OC2CCCC2)c2c(-c3ccc4nc(C)oc4c3)c[nH]c2n1` as the molecule, how does the pIC50 [8] read?
Answer: 7.00

Question: With `COc1cc(N2CCC(O)CC2)ccc1Nc1nc(Nc2ccccc2S(=O)(=O)C(C)C)c2nc[nH]c2n1` as the molecule, how does the pIC50 [10] read?
Answer: 7.82

Question: Which results are given for `NS(=O)(=O)c1cccc(-c2n[nH]c3ccc(NC(=O)C(c4ccsc4)N4CCCC4)cc23)c1` (stereo not drawn)?
Answer: GI50 [11]: 70 nM; GI50 [12]: 100 nM; pIC50 [13]: 6.05; inhibition in vivo at 12.5 mg/kg [14]: 66%; GI50 [15]: 100 nM

Question: With `CCOc1cc2c(-c3cccc(S(N)(=O)=O)c3)n[nH]c2cc1-c1cn[nH]c1` as the molecule, how does the pIC50 [1] read?
Answer: 6.41

Question: With `CCOc1ccc2[nH]nc(-c3ccc(NC(C)=O)cc3)c2c1` as the molecule, how does the pIC50 [16] read?
Answer: 7.55

Question: For `COc1ccc(Oc2cc(NCCC(F)(F)F)c3ncc(-c4ccc(C(=O)NC5CC5)c(C)c4)n3n2)c(F)c1F` [BAY-1217389], which AUC/dose [17] is on record?
Answer: 2.4 kg·h/L

Question: And the clearance [18]?
Answer: 8.67 mL/min/kg

Question: And the clearance [19]?
Answer: 7.33 mL/min/kg

Question: What about the AUC/dose [20] of the same molecule?
Answer: 2.5 kg·h/L

Question: What does the source list for `CN(C)C(=O)c1cc2cnc(Nc3ccc(-c4cnn(C)c4)cc3Cl)cc2[nH]1`?
Answer: pIC50 [5]: < 4.00; metabolised at 0.5 h [6]: 20%
